{
  "source": "ChEMBL document CHEMBL5233246",
  "about": "“CT1-3, a novel magnolol-sulforaphane hybrid suppresses tumorigenesis through inducing mitochondria-mediated apoptosis and inhibiting epithelial mesenchymal transition” (Eur J Med Chem, 2020)",
  "key": {"A549 [1]": {"tested_on": "A549", "assay": "Induction of apoptosis in human A549 cells assessed as late apoptotic cells at 10 uM incubated for 24 hrs by annexin V-FITC/propidium iodide staining based flow cytometry analysis (reference value: 0.8%)", "format": "functional"}, "A549 [2]": {"tested_on": "A549", "assay": "Induction of apoptosis in human A549 cells assessed as necrotic cells at 10 uM incubated for 24 hrs by annexin V-FITC/propidium iodide staining based flow cytometry analysis (reference value: 0.4%)", "format": "functional"}, "NCI-H460 [3]": {"tested_on": "NCI-H460", "assay": "Induction of apoptosis in human NCI-H460 cells assessed as viable cells at 10 uM incubated for 24 hrs by annexin V-FITC/propidium iodide staining based flow cytometry analysis (reference value: 97.9%)", "format": "functional", "conditions": "read-out: Activity"}, "NCI-H460 [4]": {"tested_on": "NCI-H460", "assay": "Induction of apoptosis in human NCI-H460 cells assessed as early apoptotic cells at 10 uM incubated for 24 hrs by annexin V-FITC/propidium iodide staining based flow cytometry analysis (reference value: 0.8%)", "format": "functional"}, "NCI-H460 [5]": {"tested_on": "NCI-H460", "assay": "Induction of apoptosis in human NCI-H460 cells assessed as late apoptotic cells at 10 uM incubated for 24 hrs by annexin V-FITC/propidium iodide staining based flow cytometry analysis (reference value: 0.4%)", "format": "functional"}, "NCI-H460 [6]": {"tested_on": "NCI-H460", "assay": "Induction of apoptosis in human NCI-H460 cells assessed as necrotic cells at 10 uM incubated for 24 hrs by annexin V-FITC/propidium iodide staining based flow cytometry analysis (reference value: 0.9%)", "format": "functional"}, "LoVo [7]": {"tested_on": "LoVo", "assay": "Induction of apoptosis in human LoVo cells assessed as viable cells at 10 uM incubated for 24 hrs by annexin V-FITC/propidium iodide staining based flow cytometry analysis (reference value: 98%)", "format": "functional", "conditions": "read-out: Activity"}, "LoVo [8]": {"tested_on": "LoVo", "assay": "Induction of apoptosis in human LoVo cells assessed as early apoptotic cells at 10 uM incubated for 24 hrs by annexin V-FITC/propidium iodide staining based flow cytometry analysis (reference value: 1.3%)", "format": "functional"}, "LoVo [9]": {"tested_on": "LoVo", "assay": "Induction of apoptosis in human LoVo cells assessed as late apoptotic cells at 10 uM incubated for 24 hrs by annexin V-FITC/propidium iodide staining based flow cytometry analysis (reference value: 0.4%)", "format": "functional"}, "LoVo [10]": {"tested_on": "LoVo", "assay": "Induction of apoptosis in human LoVo cells assessed as necrotic cells at 10 uM incubated for 24 hrs by annexin V-FITC/propidium iodide staining based flow cytometry analysis (reference value: 0.3%)", "format": "functional"}, "A549 [11]": {"tested_on": "A549", "assay": "Induction of apoptosis in human A549 cells assessed as increase in ROS level at 10 uM incubated for 8 hrs by H2DCFDA staining based fluorescence microscopic assay", "format": "functional, cell-based"}, "NCI-H460 [12]": {"tested_on": "NCI-H460", "assay": "Induction of apoptosis in human NCI-H460 cells assessed as increase in ROS level at 10 uM incubated for 8 hrs by H2DCFDA staining based fluorescence microscopic assay", "format": "functional, cell-based"}, "LoVo [13]": {"tested_on": "LoVo", "assay": "Induction of apoptosis in human LoVo cells assessed as increase in ROS level at 10 uM incubated for 8 hrs by H2DCFDA staining based fluorescence microscopic assay", "format": "functional, cell-based"}, "A549 [14]": {"tested_on": "A549", "assay": "Induction of apoptosis in human A549 cells assessed as reduction of mitochondrial membrane potential at 10 uM incubated for 8 hrs by JC-1 staining based fluorescence microscopic assay", "format": "functional, cell-based"}, "NCI-H460 [15]": {"tested_on": "NCI-H460", "assay": "Induction of apoptosis in human NCI-H460 cells assessed as reduction of mitochondrial membrane potential at 10 uM incubated for 8 hrs by JC-1 staining based fluorescence microscopic assay", "format": "functional, cell-based"}, "LoVo [16]": {"tested_on": "LoVo", "assay": "Induction of apoptosis in human LoVo cells assessed as reduction of mitochondrial membrane potential at 10 uM incubated for 8 hrs by JC-1 staining based fluorescence microscopic assay", "format": "functional, cell-based"}, "NCI-H460 [17]": {"tested_on": "NCI-H460", "assay": "Induction of apoptosis in human NCI-H460 cells assessed as decrease in Bcl-2 protein expression level at 7.5 uM incubated for 24 hrs by western blot assay", "format": "functional, cell-based"}, "LoVo [18]": {"tested_on": "LoVo", "assay": "Induction of apoptosis in human LoVo cells assessed as decrease in Bcl-2 protein expression level at 7.5 uM incubated for 24 hrs by western blot assay", "format": "functional, cell-based"}, "NCI-H460 [19]": {"tested_on": "NCI-H460", "assay": "Induction of apoptosis in human NCI-H460 cells assessed as decrease in XIAP protein expression level at 7.5 uM incubated for 24 hrs by western blot assay", "format": "functional, cell-based"}, "LoVo [20]": {"tested_on": "LoVo", "assay": "Induction of apoptosis in human LoVo cells assessed as decrease in XIAP protein expression level at 7.5 uM incubated for 24 hrs by western blot assay", "format": "functional, cell-based"}, "NCI-H460 [21]": {"tested_on": "NCI-H460", "assay": "Induction of apoptosis in human NCI-H460 cells assessed as increase in Bax protein expression level at 7.5 uM incubated for 24 hrs by western blot assay", "format": "functional, cell-based"}, "LoVo [22]": {"tested_on": "LoVo", "assay": "Induction of apoptosis in human LoVo cells assessed as increase in Bax protein expression level at 7.5 uM incubated for 24 hrs by western blot assay", "format": "functional, cell-based"}, "NCI-H460 [23]": {"tested_on": "NCI-H460", "assay": "Induction of apoptosis in human NCI-H460 cells assessed as increase in JNK phosphorylation level at 7.5 uM incubated for 24 hrs by western blot assay", "format": "functional, cell-based"}, "LoVo [24]": {"tested_on": "LoVo", "assay": "Induction of apoptosis in human LoVo cells assessed as increase in JNK phosphorylation at 7.5 uM incubated for 24 hrs by western blot assay", "format": "functional, cell-based"}, "A549 [25]": {"tested_on": "A549", "assay": "Inhibition of cell migration in human A549 cells at 7.5 uM incubated for 24 hrs by crystal violet staining based transwell assay", "format": "functional"}, "NCI-H460 [26]": {"tested_on": "NCI-H460", "assay": "Inhibition of cell migration in human NCI-H460 cells at 7.5 uM incubated for 24 hrs by crystal violet staining based transwell assay", "format": "functional"}, "LoVo [27]": {"tested_on": "LoVo", "assay": "Inhibition of cell migration in human LoVo cells at 7.5 uM incubated for 24 hrs by crystal violet staining based transwell assay", "format": "functional"}, "A549 [28]": {"tested_on": "A549", "assay": "Inhibition of cell invasion in human A549 cells at 7.5 uM incubated for 24 hrs by matrigel based transwell assay", "format": "functional"}, "NCI-H460 [29]": {"tested_on": "NCI-H460", "assay": "Inhibition of cell invasion in human NCI-H460 cells at 7.5 uM incubated for 24 hrs by matrigel based transwell assay", "format": "functional"}, "LoVo [30]": {"tested_on": "LoVo", "assay": "Inhibition of cell invasion in human LoVo cells at 7.5 uM incubated for 24 hrs by matrigel based transwell assay", "format": "functional"}, "NCI-H460 [31]": {"tested_on": "NCI-H460", "assay": "Inhibition of cell migration in human NCI-H460 cells assessed as upregulation of E-cadherin protein expression at 7.5 uM incubated for 24 hrs by western blot analysis", "format": "functional, cell-based"}, "LoVo [32]": {"tested_on": "LoVo", "assay": "Inhibition of cell migration in human LoVo cells assessed as upregulation of E-cadherin protein expression at 7.5 uM incubated for 24 hrs by western blot analysis", "format": "functional, cell-based"}, "NCI-H460 [33]": {"tested_on": "NCI-H460", "assay": "Inhibition of cell migration in human NCI-H460 cells assessed as downregulation of Snail protein expression at 7.5 uM incubated for 24 hrs by western blot analysis", "format": "functional, cell-based"}, "LoVo [34]": {"tested_on": "LoVo", "assay": "Inhibition of cell migration in human LoVo cells assessed as downregulation of Snail protein expression at 7.5 uM incubated for 24 hrs by western blot analysis", "format": "functional, cell-based"}},
  "note": "Active and inactive are the calls of the source. The rule behind the calls is not given here.",
  "data": [
    {"smiles": "C=CCc1ccc(O)c(-c2cc(CC=C)ccc2OCC[S+]([O-])CCCCN=C=S)c1", "note": "(centres undefined)", "values": [
      {"measurement": "Activity", "setting": "A549 [1]", "value": 25.7, "unit": "%"},
      {"measurement": "Activity", "setting": "A549 [2]", "value": 10.3, "unit": "%"},
      {"measurement": "viability at 10 µM", "setting": "NCI-H460 [3]", "value": 15.3, "unit": "%"},
      {"measurement": "Activity", "setting": "NCI-H460 [4]", "value": 8.2, "unit": "%"},
      {"measurement": "Activity", "setting": "NCI-H460 [5]", "value": 72.9, "unit": "%"},
      {"measurement": "Activity", "setting": "NCI-H460 [6]", "value": 3.6, "unit": "%"},
      {"measurement": "viability at 10 µM", "setting": "LoVo [7]", "value": 22, "unit": "%"},
      {"measurement": "Activity", "setting": "LoVo [8]", "value": 16.7, "unit": "%"},
      {"measurement": "Activity", "setting": "LoVo [9]", "value": 23.3, "unit": "%"},
      {"measurement": "Activity", "setting": "LoVo [10]", "value": 38, "unit": "%"},
      {"measurement": "Activity", "setting": "A549 [11]", "value": "Active"},
      {"measurement": "Activity", "setting": "NCI-H460 [12]", "value": "Active"},
      {"measurement": "Activity", "setting": "LoVo [13]", "value": "Active"},
      {"measurement": "Activity", "setting": "A549 [14]", "value": "Active"},
      {"measurement": "Activity", "setting": "NCI-H460 [15]", "value": "Active"},
      {"measurement": "Activity", "setting": "LoVo [16]", "value": "Active"},
      {"measurement": "Activity", "setting": "NCI-H460 [17]", "value": "Active"},
      {"measurement": "Activity", "setting": "LoVo [18]", "value": "Active"},
      {"measurement": "Activity", "setting": "NCI-H460 [19]", "value": "Active"},
      {"measurement": "Activity", "setting": "LoVo [20]", "value": "Active"},
      {"measurement": "Activity", "setting": "NCI-H460 [21]", "value": "Active"},
      {"measurement": "Activity", "setting": "LoVo [22]", "value": "Active"},
      {"measurement": "Activity", "setting": "NCI-H460 [23]", "value": "Active"},
      {"measurement": "Activity", "setting": "LoVo [24]", "value": "Active"},
      {"measurement": "inhibition", "setting": "A549 [25]", "value": "Active"},
      {"measurement": "inhibition", "setting": "NCI-H460 [26]", "value": "Active"},
      {"measurement": "inhibition", "setting": "LoVo [27]", "value": "Active"},
      {"measurement": "inhibition", "setting": "A549 [28]", "value": "Active"},
      {"measurement": "inhibition", "setting": "NCI-H460 [29]", "value": "Active"},
      {"measurement": "inhibition", "setting": "LoVo [30]", "value": "Active"},
      {"measurement": "inhibition", "setting": "NCI-H460 [31]", "value": "Active"},
      {"measurement": "inhibition", "setting": "LoVo [32]", "value": "Active"},
      {"measurement": "inhibition", "setting": "NCI-H460 [33]", "value": "Active"},
      {"measurement": "inhibition", "setting": "LoVo [34]", "value": "Active"}
    ]}
  ]
}
